As a reminder, the Ki is the dissociation constant of the complex between target and ligand, obtained from inhibition or displacement.

The target of one test is Rhesus PDE2A3 (Macaca mulatta, UniProt B3VTJ2). As to the kind of experiment: PDE2 fluorescence polarization (IMAP FP) inhibition assay, rhesus enzyme. In kind it is biochemical, rhesus macaque. Put shortly: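 IMAP FP (mP from parallel and perpendicular fluorescence against substrate-only control) was read ≥1 h after adding binding reagent. The preceding 60 min room-temperature reaction contained FAM-cAMP (50 nM) and cGMP (1 uM) in pH 7.2 Tris buffer with MgCl2 and DTT. Enzyme was supernatant of sonicated AD293 cells expressing rhesus PDE2A3; compounds were 3-fold titrated, DMSO 1% final.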
Rhesus PDE2A3, sequence (B3VTJ2 1-941): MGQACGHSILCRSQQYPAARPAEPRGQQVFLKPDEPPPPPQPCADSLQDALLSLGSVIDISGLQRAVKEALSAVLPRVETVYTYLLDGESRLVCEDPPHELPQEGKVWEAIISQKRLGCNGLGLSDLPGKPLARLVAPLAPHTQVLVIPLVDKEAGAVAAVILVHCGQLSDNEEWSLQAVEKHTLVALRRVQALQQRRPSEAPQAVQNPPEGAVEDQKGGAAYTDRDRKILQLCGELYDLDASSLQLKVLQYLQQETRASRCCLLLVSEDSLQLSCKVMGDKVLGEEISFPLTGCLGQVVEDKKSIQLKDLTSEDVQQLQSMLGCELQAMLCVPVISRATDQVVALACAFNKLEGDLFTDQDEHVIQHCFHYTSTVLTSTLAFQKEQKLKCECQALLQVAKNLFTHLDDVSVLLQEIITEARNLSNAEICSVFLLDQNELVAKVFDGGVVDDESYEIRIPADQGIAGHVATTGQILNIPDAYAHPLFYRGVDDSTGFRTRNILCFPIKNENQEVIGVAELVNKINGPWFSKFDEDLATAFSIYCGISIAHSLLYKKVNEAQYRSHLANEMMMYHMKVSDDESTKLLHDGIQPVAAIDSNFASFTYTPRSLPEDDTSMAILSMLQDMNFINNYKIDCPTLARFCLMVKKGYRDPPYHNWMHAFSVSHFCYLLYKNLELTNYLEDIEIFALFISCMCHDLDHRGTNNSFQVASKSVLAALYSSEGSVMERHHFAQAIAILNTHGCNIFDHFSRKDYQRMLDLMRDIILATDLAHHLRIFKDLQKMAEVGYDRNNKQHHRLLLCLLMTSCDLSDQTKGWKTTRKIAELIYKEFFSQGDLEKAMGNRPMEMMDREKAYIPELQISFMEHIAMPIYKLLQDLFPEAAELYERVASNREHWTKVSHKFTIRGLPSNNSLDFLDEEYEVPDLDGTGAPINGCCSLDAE
In general terms: In fluorescence polarisation assays a small probe gives low polarisation when free and higher when bound to something large.

The target in a further test is human PDE2A1 (Homo sapiens (Human), UniProt O00408). As to the kind of experiment: IMAP FP PDE selectivity panel, human PDE2A1. In kind it is biochemical. An outline of the steps: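 IMAP FP format: substrate 50 nM FAM-cAMP plus 1000 nM cGMP, enzyme (insect-cell GST-tagged human PDE2A1) at ~20% conversion, 60 min reaction at room temperature. Apparent inhibition constants calculated from parallel/perpendicular fluorescence with KM 10,000 nM.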
human PDE2A1, sequence (O00408 other isoform, or with tags, fused parts or gaps): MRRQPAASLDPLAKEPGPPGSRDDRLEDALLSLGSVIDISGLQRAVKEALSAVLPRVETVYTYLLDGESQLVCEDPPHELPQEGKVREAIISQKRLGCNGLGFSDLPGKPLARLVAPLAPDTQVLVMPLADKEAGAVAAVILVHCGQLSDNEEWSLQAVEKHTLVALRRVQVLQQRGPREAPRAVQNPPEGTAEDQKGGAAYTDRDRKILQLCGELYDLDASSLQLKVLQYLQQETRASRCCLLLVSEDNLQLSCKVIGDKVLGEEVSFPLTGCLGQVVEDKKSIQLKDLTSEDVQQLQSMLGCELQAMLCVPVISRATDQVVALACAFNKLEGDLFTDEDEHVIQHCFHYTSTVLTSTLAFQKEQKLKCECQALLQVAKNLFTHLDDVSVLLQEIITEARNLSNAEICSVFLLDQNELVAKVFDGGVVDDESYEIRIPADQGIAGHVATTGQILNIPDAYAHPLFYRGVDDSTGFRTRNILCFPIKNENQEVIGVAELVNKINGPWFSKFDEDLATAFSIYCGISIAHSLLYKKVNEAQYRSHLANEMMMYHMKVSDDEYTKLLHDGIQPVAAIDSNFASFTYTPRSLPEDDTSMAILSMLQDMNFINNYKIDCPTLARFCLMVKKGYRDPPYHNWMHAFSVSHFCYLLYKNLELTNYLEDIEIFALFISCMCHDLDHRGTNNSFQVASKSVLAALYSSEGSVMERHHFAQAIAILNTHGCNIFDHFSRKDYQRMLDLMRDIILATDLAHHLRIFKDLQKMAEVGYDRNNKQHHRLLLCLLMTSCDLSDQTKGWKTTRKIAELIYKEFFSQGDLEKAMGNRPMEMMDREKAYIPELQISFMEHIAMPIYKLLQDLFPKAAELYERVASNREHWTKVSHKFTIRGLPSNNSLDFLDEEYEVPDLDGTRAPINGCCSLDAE

[1] abbreviates: Rhesus PDE2, Lab B, read-out: Rhesus PDE2 Ki (nM) - Lab B.
Where [2] appears, read: Human PDE2, Lab B, read-out: Human PDE2 Ki (nM) - Lab B.
Where [3] appears, read: Rhesus PDE2, Lab A, read-out: Rhesus PDE2 Ki (nM) - Lab A.
Setting [4] is: Human PDE2, Lab A, read-out: Human PDE2 Ki (nM) - Lab A.

Read-outs that look alike come from different tables or passages of the source.

Consider `Cc1nc(C(=O)NC(C)(C)c2ccc(C(F)(F)F)cc2Cl)cc(=O)[nH]1` [Example 593, N-{1-[2-chloro-4-(trifluoromethyl)phenyl]-1-methylethyl}-2-methyl-6-oxo-1,6-dihydropyrimidine-4-carboxamide], for which the Ki at Rhesus PDE2A3 (setting [1]) turned out to be 11 nM; at human PDE2A1 (setting [2]) it was 10 nM.

For `Cc1nc(C(=O)NC(c2ccc(SC(F)(F)F)c(F)c2)C2(C)CC2)cc(=O)[nH]1` (single isomer, unassigned) [Example 702, (R)- or (S)-N-((3-fluoro-4-((trifluoromethyl)thio)phenyl)(1-methylcyclopropyl)methyl)-2-methyl-6-oxo-1,6-dihydropyrimidine-4-carboxamide], the Ki at Rhesus PDE2A3 (setting [1]) was determined as 8.7 nM; on human PDE2A1 (setting [2]), 7.2 nM.

Turning to `CC(C)(NC(=O)c1cc(=O)[nH]c(-c2ccccc2)n1)c1ccc(SC(F)(F)F)c(F)c1` [Example 361, N-(1-{3-fluoro-4-[(trifluoromethyl)sulfanyl]phenyl}-1-methylethyl)-6-oxo-2-phenyl-1,6-dihydropyrimidine-4-carboxamide], the inhibitory constant (Ki) was about 78 nM at Rhesus PDE2A3 (setting [3]), 99 nM on Rhesus PDE2A3 (setting [1]) and 81 nM at human PDE2A1 (setting [2]).

In the case of `Cc1nc(C(=O)N[C@@H](c2ccc(OC(F)(F)F)c(F)c2)C(C)(C)C)cc(=O)[nH]1` [Example 60, (R)-N-(1-(3-fluoro-4-(trifluoromethoxy)phenyl)-2,2-dimethylpropyl)-2-methyl-6-oxo-1,6-dihydropyrimidine-4-carboxamide], the Ki on Rhesus PDE2A3 (setting [1]) came to 4.8 nM; at human PDE2A1 (setting [2]), 2.8 nM.

As to `Cc1nc(C(=O)NC2(c3ccc(C(F)(F)F)cc3)CCCC2)cc(=O)[nH]1` [Example 270, 2-methyl-6-oxo-N-{1-[4-(trifluoromethyl)phenyl]cyclopentyl}-1,6-dihydropyrimidine-4-carboxamide], the Ki on Rhesus PDE2A3 (setting [3]) was 225 nM; on human PDE2A1 (setting [4]), 113 nM.

As for `COc1cc(OC(F)(F)F)ccc1C(C)NC(=O)c1cc(=O)[nH]c(C2CC2)n1` (stereo not drawn) [Example 230, 2-cyclopropyl-N-{1-[2-methoxy-4-(trifluoromethoxy)phenyl]ethyl}-6-oxo-1,6-dihydropyrimidine-4-carboxamide], the values for the Ki on Rhesus PDE2A3 (setting [3]) and on human PDE2A1 (setting [4]) were 25 nM and 11 nM, respectively.

With `C[C@@H](NC(=O)c1cc(=O)[nH]cn1)c1ccc(C(F)(F)F)cc1` [Example 8, (R)-6-oxo-N-(1-(4-(trifluoromethyl)phenyl)ethyl)-1,6-dihydropyrimidine-4-carboxamide], the Ki was determined as 410 nM on Rhesus PDE2A3 (setting [3]) and 334 nM at human PDE2A1 (setting [4]).

For the compound `CC(C)[C@@H](NC(=O)c1cc(=O)[nH]c(-c2ccccc2)n1)c1ccc(SC(F)(F)F)c(F)c1` [Example 407, N-[(1R)-1-{3-fluoro-4-[(trifluoromethyl)sulfanyl]phenyl}-2-methylpropyl]-6-oxo-2-phenyl-1,6-dihydropyrimidine-4-carboxamide], the Ki at Rhesus PDE2A3 (setting [1]) came out at 4.5 nM; at human PDE2A1 (setting [2]) it was 3.6 nM.

`Cc1nc(C(=O)N[C@@H](c2ccc(OC(F)(F)F)cc2)C2CC2)cc(=O)[nH]1` [Example 70, N-{(R)-cyclopropyl[4-(trifluoromethoxy)phenyl]methyl}-2-methyl-6-oxo-1,6-dihydropyrimidine-4-carboxamide]: the Ki is 25 nM at Rhesus PDE2A3 (setting [3]), 29 nM at Rhesus PDE2A3 (setting [1]), about 14 nM at human PDE2A1 (setting [4]) and 29 nM at human PDE2A1 (setting [2]).

As to `COc1ccc([C@@H](C)NC(=O)c2cc(=O)[nH]c(-c3ccccc3)n2)cc1` [Example 347, N-[(1R)-1-(4-methoxyphenyl)ethyl]-6-oxo-2-phenyl-1,6-dihydropyrimidine-4-carboxamide], the values for the Ki at Rhesus PDE2A3 (setting [3]), on Rhesus PDE2A3 (setting [1]) and at human PDE2A1 (setting [2]) were 45 nM, 74 nM and 50 nM, respectively.

On to `C[C@@H](NC(=O)c1cc(=O)[nH]c(-c2ccccc2)n1)c1ccc(N(C)C)cc1` [Example 374, N-{(1R)-1-[4-(dimethylamino)phenyl]ethyl}-6-oxo-2-phenyl-1,6-dihydropyrimidine-4-carboxamide], for which the figures for the Ki on Rhesus PDE2A3 (setting [3]), at Rhesus PDE2A3 (setting [1]) and at human PDE2A1 (setting [2]) were 24 nM, 36 nM and 33 nM, respectively.

As for `COc1ccc(Cc2nc(C(=O)N[C@@H](c3ccc(S(F)(F)(F)(F)F)cc3)C3CC3)cc(=O)[nH]2)cc1F` [Example 510, N-{(R)-cyclopropyl[4-(pentafluoro-λ^6-sulfanyl)phenyl]methyl}-2-(3-fluoro-4-methoxybenzyl)-6-oxo-1,6-dihydropyrimidine-4-carboxamide], the Ki was 3.3 nM at Rhesus PDE2A3 (setting [1]) and 2.8 nM on human PDE2A1 (setting [2]).

`CC[C@@H](NC(=O)c1cc(=O)[nH]c(Cc2ccc(OC)cc2)n1)c1ccc(S(F)(F)(F)(F)F)cc1` [Example 482, 2-(4-methoxybenzyl)-6-oxo-N-{(1R)-1-[4-(pentafluoro-λ^6-sulfanyl)phenyl]propyl}-1,6-dihydropyrimidine-4-carboxamide]: the Ki on Rhesus PDE2A3 (setting [1]) came out at 3.3 nM; at human PDE2A1 (setting [2]), 3.4 nM.

Turning to `O=C(N[C@@H](c1ccc(S(F)(F)(F)(F)F)cc1)C1CC1)c1cc(=O)[nH]c(-c2ccccc2)n1` [Example 404, N-{(R)-cyclopropyl[4-(pentafluoro-λ^6-sulfanyl)phenyl]methyl}-6-oxo-2-phenyl-1,6-dihydropyrimidine-4-carboxamide], the figures for the Ki at Rhesus PDE2A3 (setting [1]) and on human PDE2A1 (setting [2]) were 9.5 nM and 6.5 nM, respectively.

In the case of `CC(C)(NC(=O)c1cc(=O)[nH]c(-c2ccccc2)n1)c1ccc(Br)cc1` [Example 340, N-[1-(4-bromophenyl)-1-methylethyl]-6-oxo-2-phenyl-1,6-dihydropyrimidine-4-carboxamide], the Ki on Rhesus PDE2A3 (setting [3]) was determined as 49 nM; on Rhesus PDE2A3 (setting [1]) it was 109 nM; on human PDE2A1 (setting [2]), 83 nM.

As for `O=C(NC1(c2ccc(SC(F)(F)F)c(F)c2)CC1)c1cc(=O)[nH]c(-c2ncccn2)n1` [Example 253, N-(1-{3-fluoro-4-[(trifluoromethyl)sulfanyl]phenyl}cyclopropyl)-6-oxo-1,6-dihydro-2,2′-bipyrimidine-4-carboxamide], the Ki at Rhesus PDE2A3 (setting [3]) came to 14 nM; on human PDE2A1 (setting [4]), 17 nM.

As for `Cc1nc(C(=O)NC(C)c2ccc(-c3ccccc3)cc2)cc(=O)[nH]1` (single isomer, unassigned) [Example 307, (R)- or (S)-N-(1-biphenyl-4-ylethyl)-2-methyl-6-oxo-1,6-dihydropyrimidine-4-carboxamide], the Ki was 17 nM on Rhesus PDE2A3 (setting [3]) and 16 nM at human PDE2A1 (setting [4]).

On to `Cc1nc(C(=O)N[C@H](C)c2ccc(-c3ccc(F)cc3)cc2)cc(=O)[nH]1` [Example 322, N-[(1R)-1-(4′-fluorobiphenyl-4-yl)ethyl]-2-methyl-6-oxo-1,6-dihydropyrimidine-4-carboxamide], for which the results for the Ki on Rhesus PDE2A3 (setting [3]) and on human PDE2A1 (setting [4]) were 205 nM and 171 nM, respectively.

For `C[C@@H](NC(=O)c1cc(=O)[nH]c(-c2ncccn2)n1)c1ccc(SC(F)(F)F)c(F)c1` [Example 260, N-[(1R)-1-{3-fluoro-4-[(trifluoromethyl)sulfanyl]phenyl}ethyl]-6-oxo-1,6-dihydro-2,2′-bipyrimidine-4-carboxamide], the Ki was found to be 1 nM on Rhesus PDE2A3 (setting [3]), 1.8 nM at Rhesus PDE2A3 (setting [1]) and 1.8 nM at human PDE2A1 (setting [2]).

`COc1ccc(Cc2nc(C(=O)N[C@@H](c3ccc(C(F)(F)F)cc3)C(C)C)cc(=O)[nH]2)cc1` [Example 474, 2-(4-methoxybenzyl)-N-{(1R)-2-methyl-1-[4-(trifluoromethyl)phenyl]propyl}-6-oxo-1,6-dihydropyrimidine-4-carboxamide]: the Ki stood at 1.4 nM at Rhesus PDE2A3 (setting [1]) and 1.5 nM on human PDE2A1 (setting [2]).

As to `O=C(NC1(c2ccc(SC(F)(F)F)c(F)c2)CC1)c1cc(=O)[nH]c(-c2ccccc2)n1` [Example 352, N-(1-{3-fluoro-4-[(trifluoromethyl)sulfanyl]phenyl}cyclopropyl)-6-oxo-2-phenyl-1,6-dihydropyrimidine-4-carboxamide], the Ki at Rhesus PDE2A3 (setting [3]) amounted to 15 nM; at Rhesus PDE2A3 (setting [1]), 51 nM; on human PDE2A1 (setting [2]), 54 nM.

`O=C(NCc1ccc(C2CC2)cc1)c1cc(=O)[nH]c(-c2ccccc2)n1` [Example 182, N-(4-cyclopropylbenzyl)-6-oxo-2-phenyl-1,6-dihydropyrimidine-4-carboxamide]: the Ki at Rhesus PDE2A3 (setting [3]) came out at 141 nM; on human PDE2A1 (setting [4]) it was 118 nM.

As for `Cc1nc(C(=O)N[C@@H](c2ccc(OC(F)(F)F)cc2)C(C)(C)C)cc(=O)[nH]1` [Example 57, (R)-N-(2,2-dimethyl-1-(4-(trifluoromethoxy)phenyl)propyl)-2-methyl-6-oxo-1,6-dihydropyrimidine-4-carboxamide], the Ki was determined as 5.8 nM at Rhesus PDE2A3 (setting [1]) and 3.9 nM at human PDE2A1 (setting [2]).

For the compound `CC(C)c1ccc([C@H](NC(=O)c2cc(=O)[nH]c(C3CC3)n2)C2(C)CC2)cc1` [Example 444, 2-cyclopropyl-N-{(R)-(1-methylcyclopropyl)[4-(1-methylethyl)phenyl]methyl}-6-oxo-1,6-dihydropyrimidine-4-carboxamide], the Ki on Rhesus PDE2A3 (setting [1]) was found to be 2 nM; at human PDE2A1 (setting [2]), 2.5 nM.

On to `C[C@@H](NC(=O)c1cc(=O)[nH]c(Cc2ccccc2)n1)c1ccc(C(F)(F)F)cc1` [Example 133, 2-benzyl-6-oxo-N-{(1R)-1-[4-(trifluoromethyl)phenyl]ethyl}-1,6-dihydropyrimidine-4-carboxamide], for which the Ki came to 21 nM at Rhesus PDE2A3 (setting [3]) and 20 nM on human PDE2A1 (setting [4]).

Regarding `CC(C)c1ccc([C@@H](C)NC(=O)c2cc(=O)[nH]c(C3CC3)n2)cc1` [Example 298, 2-cyclopropyl-N-{(1R)-1-[4-(1-methylethyl)phenyl]ethyl}-6-oxo-1,6-dihydropyrimidine-4-carboxamide], the Ki at Rhesus PDE2A3 (setting [3]) was 18 nM; at human PDE2A1 (setting [4]), 13 nM.
